From patent US20030134901A1, “Lipoxin compounds and their use in treating cell proliferative disorders” (priority 1993, published 2003) come the findings set out here.

By inhibition is commonly meant how much of the control response was suppressed.

In one experiment the test system is human skin fibroblasts. The experiment can be described thus: Fibroblast proliferation, MTT assay. The format is cell-based. The conditions noted are these: Homo sapiens, Skin fibroblast; 100 nM, n=3. An excerpt: Human type II epithelial A549 cells from human lung carcinoma and normal human skin fibroblast (breast) were obtained from the American Type Culture Collection (Rockville, Md.). The A549 cell line originated from a human alveolar cell carcinoma and was a useful cell line because it was easily assessable and could be maintained in culture without contaminating tissue macrophages. (Lieber, M., et al (1976) A continuous tumor-cell line from a human lung carcinoma with properties of type II alveolar epithelial cells. Int. J Cancer Fibroblasts were utilized within their limited window of viability and their passage numbers were recorded (results are reported for cells from 3-5 passages). Epithelial A549 cells were seeded into T-75 cm^2 tissue culture flasks and maintained in F-12K medium supplemented with 10% heat-inactivated FBS, penicillin (50 U/mL) and streptomycin (50 (g/mL). Human PMN from healthy donors who had not taken ASA or other medications for at least two weeks were obtained by Ficoll-Hypaque gradient centrifugation and dextran sedimentation, (Böyum A. (1968) Isolation of mononuclear cells and granulocytes from human blood. […] Viability of A549 cells and PMN was determined by their ability to exclude trypan blue and were 95±2 and 97±1%, respectively.
A microculture 3,(4,5-dimethylthiazoyl-2-yl) 2,5 (diphenyl-tetrazolium bromide) (MTT) assay, (Marshall, N. J., et al. (1995) A critical assessment of the use of microculture tetrazolium assays to measure cell growth and function. Growth Regul. 5: 69-84.), was used to examine the actions of LXs and other eicosanoids on cell proliferation. A549 cells and fibroblasts from exponential-phase maintenance cultures were counted and dispensed within replicate 96-well culture plates in 100 μl volumes of medium (˜2000 cells/well). […] Dye solution was aspirated, wells were washed once with HBSS and dye taken up by the cells was extracted in 100 μl of isopropyl alcohol:1 N HCl (96:4, v/v) and quantitated at 570 nm using a microplate reader (Molecular Devices, Menlo Park, Calif.). […]
For orientation: Formazan colour is commonly taken as a measure of viable cells.

A further experiment has as its system A549 cells. The experiment can be described thus: A549 cell proliferation, MTT assay. The experiment is classed as cell-based, human. To be noted: Homo sapiens, A549. As to the method: A microculture 3,(4,5-dimethylthiazoyl-2-yl) 2,5 (diphenyl-tetrazolium bromide) (MTT) assay, (Marshall, N. J., et al. (1995) A critical assessment of the use of microculture tetrazolium assays to measure cell growth and function. Growth Regul. 5: 69-84.), was used to examine the actions of LXs and other eicosanoids on cell proliferation. A549 cells and fibroblasts from exponential-phase maintenance cultures were counted and dispensed within replicate 96-well culture plates in 100 μl volumes of medium (˜2000 cells/well). Following 24 hours at 37° C., the culture medium was removed, and fresh medium (100 μl) containing either the compounds (5-1000 nM) or vehicle (medium plus 0.15% ethanol) was added to 4 replicates for each condition studied and the culture plates were then incubated for up to 96 hours at 37° C. in a 5% CO2 atmosphere. At the end of this period, 25 μl of freshly prepared MTT in HBSS (5 mg/ml) was added to the wells and the plates were incubated for 4 hours at 37° C. Dye solution was aspirated, wells were washed once with HBSS and dye taken up by the cells was extracted in 100 μl of isopropyl alcohol:1 N HCl (96:4, v/v) and quantitated at 570 nm using a microplate reader (Molecular Devices, Menlo Park, Calif.). In some experiments, cells were grown in 12-well culture plates, treated as above and enumerated using a Neubauer hemocytometer. Viability was assessed routinely using trypan blue exclusion assay. For the A549 cells and fibroblasts, a linear relation was established for the MTT values and cell number within the range of the experiments shown (r=0.995, P<0.005). A549 cells grown for 72 hours in the presence of the compounds (5-1000 nM) or vehicle (0.15% EtOH) were lysed with 0.25 N NaOH and the cellular protein content was determined by applying the Bio-Rad (Richmond, Calif.) microassay method using bovine serum albumin as standard. The mean cellular protein content in resting A549 cells was 46.6±1.5 pg/cell.

In experiment [1] the test system is PLD activity in differentiated HL-60 cells. The experiment can be described thus: PLD activity (PEt formation) in differentiated HL-60 cells. The experiment is classed as cell-based, human. The conditions noted are these: HL-60 cells; IAP (300 ng/ml) at LXA4 10^−9-10^−10 M, staurosporine (100 nM) at LXA4 10^−7 M. As to the method:
Cell cultures and differentiation. HL-60 cells were seeded in RPMI medium supplemented with 100 U/ml penicillin, 100 μg/ml streptomycin, and 10% fetal calf serum (Hyclone, Logan, Utah), incubated at 37° C. with 5% CO2 atmosphere in 250 ml flasks. Individual flasks containing ˜[…] next received dimethyl sulfoxide (DMSO) (1.12% v/v, 120 h) or retinoic acid (RA) (1 μM, 120 h) or phorbol myristate acetate (PMA) (20 nM, 48 h). Before performing binding assays, cells were washed twice in phosphate buffered saline (PBS), Ca^2+- and Mg^2+-free, enumerated and suspended at 20×10^6 cells/ml in Tris buffer (10 mM), pH 7.4 (Fiore, S. et al.(1992) J. Biol. Chem. 267:16168). Nitro blue tetrazolium reduction was performed to monitor induction of polymorphonuclear phenotype as in (Imaizumi, M. and Breitman, T. R. (1986) Blood 67:1273), and cell adherence was determined for induction of macrophage-like phenotype (Collins, S. J. (1987) Blood 70:1273). Human umbilical vein endothelial cells (HUVEC) maintained in culture third passage were obtained from Dr. M. Gimbrone (Brigham and Women's Hospital Department of Pathology).
PLD activity. Human PMN and HL-60 cells (50×10^6 cells/ml) prepared as above were incubated with ^3H-myristic acid or ^3H-palmitic acid (8 μCi/50×10^6 cells) for 40-60 min at 37° C. in PBS. Cell uptake ranged between 60-80% of added label, 7.1±4.2% (n=10; mean ±S.D.) and 32.6±10.3% (n=6; mean ±S.D.) into total phospholipid classes of PMN and HL-60 cells, respectively. Incubations were carried out at 37° C. (10 ×10^6 cells/ml PBS). […] At indicated times, incubations were stopped by adding 3.5 ml of ice cold CHCl3/MeOH (2/5, v/v) containing 1-^14C-arachidonic acid (5,000 cpm) used here as internal standard to quantitate extraction recoveries. […] Regions corresponding to PA, PEt, and internal standards were scraped and quantified by liquid scintillation counting. […] All values reported for PEt formation in Tables 4 and 5 were calculated by subtracting the dpm obtained in the presence of […]. […]

The subject of experiment [2] is PLD activity in human PMN. Kind of experiment: PLD activity (PEt formation) in PMN. The experiment is classed as cell-based. To be noted: PMN; IAP at LXA4 10^−9-10^−10 M, staurosporine (100 nM) at LXA4 10^−7 M. The method, then:
PMN, platelet and RBC isolation from peripheral blood. Human PMN were obtained by the modified Böyum method (Böyum, A. (1968) Scan. J. Clin. Lab. Invest. 21:77) from fresh heparinized blood after venipuncture of healthy normal volunteers. Suspensions in PBS were monitored for cell number and viability by their ability to exclude trypan blue both exceeding 98%. Red blood cells were obtained from 10 ml of heparinized blood after three centrifugations in PBS (2,500 rpm, 10 min at 21° C.). Blood drawn in acidic citrate dextrose (9:1, v/v) was used to isolate platelets as previously described (Serhan, C. N. and Sheppard, K.-A. (1990) J. Clin. Invest. 85:772). PLD activity. Human PMN and HL-60 cells (50×10^6 cells/ml) prepared as above were incubated with ^3H-myristic acid or ^3H-palmitic acid (8 μCi/50×10^6 cells) for 40-60 min at 37° C. in PBS. […] Incubations were carried out at 37° C. (10 ×10^6 cells/ml PBS). […] M. et al. (1989) J. Biol. Chem. 264:17069. At indicated times, incubations were stopped by adding 3.5 ml of ice cold CHCl3/MeOH (2/5, v/v) containing 1-^14C-arachidonic acid (5,000 cpm) used here as internal standard to quantitate extraction recoveries. Samples were extracted using a modified Bligh and Dyer extraction as in (Serhan, C. N. and Sheppard, K. -A. (1990) J. Clin. Invest. 85:772). Organic phases, concentrated in 50 μL of CHCl3/MeOH (8/2, v/v), were spotted onto linear […] TLC plates developed with the organic phase of ethyl acetate[…][…] (110/50/20/100, v/v/v/v) for 50 min ([…]. et al.(1989) J. Biol. Chem. 264:17069). […] Regions corresponding to PA, PEt, and internal standards were scraped and quantified by liquid scintillation counting. […] In these experiments, PA was resolved using ethyl acetate[…][…]) as solvent system ([…]. et al. (1989) Anal. […] Impact of IAP and staurosporine on LXA4-induced PLD activity. PLD activity assays, performed as described (vide supra), were preceded by cell exposure to either IAP or staurosporine. […]

As for `C[C@@H]1C[C@H]2[C@@H]3CCC4=CC(=O)C=C[C@]4(C)[C@@]3(F)[C@@H](O)C[C@]2(C)[C@@]1(O)C(=O)CO` [Dexamethasone], the inhibition at 0.1 µM in the experiment with human skin fibroblasts turned out to be 29.7%; in the experiment with A549 cells (10^−7 M, 72 hours at 37° C., mean ± SEM, 3 to 7 experiments), 42.1 ± 5.4%. In addition, the IC50 with A549 cells (MTT assay, 72 hours, read-out: half maximum inhibition (IC50) of A549 cell proliferation) is about 7 nM.
As to `CN[C@@H]1C[C@H]2O[C@@](C)([C@@H]1OC)n1c3ccccc3c3c4c(c5c6ccccc6n2c5c31)C(=O)NC4` [staurosporine], the “effect on LXA4-mediated PLD activity” value in experiment [1] and in experiment [2] was “inhibited by staurosporine” each time.
As to IAP: Islet activating protein, the “effect on LXA4-mediated PLD activity” value in experiment [1] and in experiment [2] was “sensitive to IAP treatment” each time.
